# Source: US9066887B2, “Transdermal therapeutic system having urea components” (LTS LOHMANN THERAPIE-SYSTEME AG, priority 2008, dated 2015)
# Assay: In vitro permeation from TTS in Franz diffusion cell
# Details: TTS with 10% (m/m) active ingredient and 20% (m/m) solid urea of particle size >100 μm (B) versus TTS containing no urea (A); acrylate adhesive matrix; cow udder, 32° C., 72 h
# Method: A commercial acrylate adhesive was dissolved in a solvent. […] This acrylate adhesive composition was cast to form a reservoir layer 500 μm in thickness, and the solvent was evaporated, producing a matrix basis weight of 100 g/m^2. A number of experimental TTS were punched from this active ingredient laminate, and were then used for experiments in vitro.
# The Franz diffusion cell is composed of a donor compartment and an acceptor compartment, separated by a membrane (cow udder). The donor compartment contains the TTS, while, for the acceptor compartment, a physiological buffer was used, conditioned to a temperature of 32° C. Samples were taken from the acceptor compartment over a period of 72 h, and were analyzed by HPLC for the permeated amount of active ingredient.
row,Structure (SMILES),"increase in active ingredient permeation through the skin (cumulative permeated amount), factor"
1,Cn1c(=O)c2c(ncn2C)n(C)c1=O [caffeine],8
2,c1ccc(Cn2c(N3CCNCC3)nc3ccccc32)cc1 [lerisetron],9
3,Clc1ccc2nsnc2c1NC1=NCCN1 [tizanidine],4
